Assay results reported in PubChem BioAssay AID1963975 (Molecular Pharmacology Branch, DTP, NCI, 2024).

System: 624824-186-R-J2-PDC multicell spheroids, viability
Experiment: Anticancer human tumor 624824-186-R-J2-PDC patient-derived colon adenocarcinoma cell line growth inhibition [PI3K]
Settings: for IC50: curve of first compound; for viability, T/C: stronger effect = lower value; active = viability on the fitted dose curve at most 10% of control; inactive = the rest
Summary of the method: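 Three cell types, namely tumor cells, endothelial cells and mesenchymal stem cells, formed each spheroid. Combinations with four PI3K inhibitors were screened at clinically achievable concentrations decreasing by half-log, and spheroid viability was recorded.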
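Also: spheroids exposed to agents for 7 days before viability read.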
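For viability, T/C in this document: 100% = DMSO vehicle treated spheroids.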

CNC(=O)c1ccc(N2C(=S)N(c3ccc(C#N)c(C(F)(F)F)c3)C(=O)C2(C)C)cc1F + CC(Nc1ncnc2nc[nH]c12)c1cc2cccc(Cl)c2c(=O)n1-c1ccccc1
inactive: viability, T/C (second compound 0.0316 µM, first compound 0.0316 µM) 94.8% | viability, T/C (second compound 0.0316 µM, first compound 0.1 µM) 95.8% | viability, T/C (second compound 0.0316 µM, first compound 0.316 µM) 74.2% | viability, T/C (second compound 0.0316 µM, first compound 1 µM) 98.4% | viability, T/C (second compound 0.0316 µM, first compound 3.16 µM) 102% | viability, T/C (second compound 0.0316 µM, first compound 10 µM) 116% | viability, T/C (second compound 0.1 µM, first compound 0.0316 µM) 104% | viability, T/C (second compound 0.1 µM, first compound 0.1 µM) 101% | viability, T/C (second compound 0.1 µM, first compound 0.316 µM) 100% | viability, T/C (second compound 0.1 µM, first compound 1 µM) 95.8% | viability, T/C (second compound 0.1 µM, first compound 3.16 µM) 86.5% | viability, T/C (second compound 0.1 µM, first compound 10 µM) 124% | viability, T/C (second compound 0.316 µM, first compound 0.0316 µM) 106% | viability, T/C (second compound 0.316 µM, first compound 0.1 µM) 114% | viability, T/C (second compound 0.316 µM, first compound 0.316 µM) 78.8% | viability, T/C (second compound 0.316 µM, first compound 1 µM) 95.4% | viability, T/C (second compound 0.316 µM, first compound 3.16 µM) 93.1% | viability, T/C (second compound 0.316 µM, first compound 10 µM) 101% | viability, T/C (second compound 1 µM, first compound 0.0316 µM) 94.9% | viability, T/C (second compound 1 µM, first compound 0.1 µM) 92.2% | viability, T/C (second compound 1 µM, first compound 0.316 µM) 101% | viability, T/C (second compound 1 µM, first compound 1 µM) 84.4% | viability, T/C (second compound 1 µM, first compound 3.16 µM) 122% | viability, T/C (second compound 1 µM, first compound 10 µM) 117% | viability, T/C (second compound 3.16 µM, first compound 0.0316 µM) 115% | viability, T/C (second compound 3.16 µM, first compound 0.1 µM) 79.2% | viability, T/C (second compound 3.16 µM, first compound 0.316 µM) 91.1% | viability, T/C (second compound 3.16 µM, first compound 1 µM) 127% | viability, T/C (second compound 3.16 µM, first compound 3.16 µM) 83.2% | viability, T/C (second compound 3.16 µM, first compound 10 µM) 96.9% | viability, T/C (second compound 10 µM, first compound 0.0316 µM) 101% | viability, T/C (second compound 10 µM, first compound 0.1 µM) 120% | viability, T/C (second compound 10 µM, first compound 0.316 µM) 107% | viability, T/C (second compound 10 µM, first compound 1 µM) 90.7% | viability, T/C (second compound 10 µM, first compound 3.16 µM) 101% | viability, T/C (second compound 10 µM, first compound 10 µM) 117%
> 10 µM: IC50 (second compound 0.0316 µM) | IC50 (second compound 0.1 µM) | IC50 (second compound 0.316 µM) | IC50 (second compound 1 µM) | IC50 (second compound 3.16 µM) | IC50 (second compound 10 µM)
